The results in this text go back to article PMC11085086, “Microwave-Assisted Atom Transfer Radical Cyclization in the Synthesis of 3,3-Dichloro-γ- and δ-Lactams from N-Alkenyl-Tethered Trichloroacetamides Catalyzed by RuCl2(PPh3)3 and Their Cytotoxic Evaluation” (Molecules, 2024).

Some results are limits rather than exact numbers.

What all share (format): cell-based
The nature of series [1]: Cell viability assay, MTT endpoint, cell line not specified. To be noted: under discrete conditions, up to 250 µg/mL, read-out: minimum cell viability values. Here is the method: (§1) The murine Swiss albino fibroblasts (3T3), the human breast adenocarcinoma (MCF-7), the human epithelial carcinoma (HeLa) and the squamous cell carcinoma (A431) cell lines were obtained from Celltec UB. Cells were grown in DMEM medium (4.5 g/L glucose) supplemented with 10% (v/v) FBS, 2 mM L-glutamine, 100 U/mL penicillin and 100 µg/mL streptomycin at 37 °C, 5% CO2. Cells were routinely cultured in 75 cm^2 culture flasks and were trypsinized using trypsin–EDTA when the cells reached approximately 80% confluence. The trypan blue assay, which allows for a direct identification and enumeration of the live (unstained) and dead (blue) cells in the cell population, was used to evaluate the viability of the cells in the cell suspension obtained.
3T3 (1 × 10^5 cells/mL), A431, HeLa and MCF-7 cells (5 × 10^4 cells/mL) were grown at defined densities in the 60 central wells of a 96-well plate. […]
Only living cells can reduce the yellow tetrazolium salt 3-(4,5-dimethyl-2-thiazolyl)-2,5-diphenyltetrazolium bromide (MTT) to insoluble purple formazan crystals. […] Agitation and determination of the absorbance of the extracted solution were performed under the same conditions as described in NRU Assay section. Finally, the effect of each treatment was calculated as the percentage of tetrazolium salt’s reduction by viable cells relative to control cells (cells without any treatment).

Series [2] relates to squamous cell carcinoma (A431) cell line. Kind of series: Cell viability assay, MTT endpoint, A431. To be noted: for SI250 (selective toxicity at 250 µg/mL): A431 compared to 3T3, 250 µg/mL, 24 h; for IC50: Homo sapiens, A-431, 24 h, A431, 24 h incubation, 10–250 µg/mL. The protocol: as §1
(§2) 3T3 (1 × 10^5 cells/mL), A431, HeLa and MCF-7 cells (5 × 10^4 cells/mL) were grown at defined densities in the 60 central wells of a 96-well plate. Cells were incubated for 24 h in 5% CO2 at 37 °C. Then, the spent medium was removed, and cells were incubated for 24 h with their corresponding compound solutions (1 mg/mL) previously diluted in a minimum amount of DMF (dimethylformamide) and then in DMEM medium supplemented with 5% FBS (100 µL) at the required concentration range (10–250 µg/mL). The viability of the cells upon incubation with the lactam derivatives was assayed using 2 different endpoints: NRU and MTT.
(§3) Only living cells can reduce the yellow tetrazolium salt 3-(4,5-dimethyl-2-thiazolyl)-2,5-diphenyltetrazolium bromide (MTT) to insoluble purple formazan crystals. After a 24 h incubation of the cells with their corresponding NPs, the medium was removed and 100 µL of MTT (Sigma-Aldrich, St. Louis, USA) in PBS (5 mg/mL) diluted 1:10 in culture medium without phenol red and without FBS (Lonza, Verviers, Belgium) was added to the cells. After 3 h of incubation, the medium was removed. Thereafter, 100 µL of DMSO (Sigma-Aldrich, St. Louis, MO, USA) was added to each well to dissolve the purple formazan crystals. Agitation and determination of the absorbance of the extracted solution were performed under the same conditions as described in NRU Assay section. Finally, the effect of each treatment was calculated as the percentage of tetrazolium salt’s reduction by viable cells relative to control cells (cells without any treatment).
(§4) The corresponding half-maximal inhibitory concentration (IC50) values for the different formulations as a function of the cell line and endpoint were determined from the fitting of concentration-dependent viability curves. The corresponding selectivity indexes toward tumoral cells were calculated using the following ratio: SI = IC50 (non-tumoral cell line)/IC50 (tumoral cell line) where 3T3 fibroblasts were used as close representative cells under non-tumoral conditions. Moreover, pseudo selectivity indexes toward tumoral cells were calculated considering the discrete cellular responses at the maximum tested concentration (250 µg/mL).

A short description of series [3]: Hemolysis assay with human erythrocyte suspension. The conditions noted are these: human, washed human erythrocyte suspension, PBS pH 7.4, read-out: degree of hemolysis. Here is the method:
(§5) Human blood samples were obtained from the Banc de Sang i Teixits de Barcelona (Spain) from the Catalan Department of Health. Blood was deposited in tubes with the anticoagulant EDTA-K3. Blood samples were centrifuged at 3000 rpm and 4 °C for 10 min (Megafuge 2.0 R. Heraeus Instruments, Hanau, Germany) to induce sedimentation. Plasma was extracted with a Pasteur pipette. Next, the residual pellet was washed with PBS at pH 7.4. This procedure was repeated three times to remove residual leukocytes and platelets and to concentrate the erythrocytes. Following the last wash, the erythrocyte suspension was diluted (1:1) in PBS at pH 7.4 to obtain a suitable erythrocyte suspension (cell density of 8 × 10^9 cell/mL).
(§6) The hemolysis assay determined the capability of different compounds to induce the hemolysis of the erythrocyte membrane. Stock solutions of each compound at 1 mg/mL in PBS at pH 7.4 were prepared. Different volumes (10–80 μL) were placed in polystyrene tubes, and an aliquot of 25 µL of the erythrocyte suspensions was added to each tube. The final volume was 1 mL. The tubes were incubated at room temperature under rotatory conditions. Then, the tubes were centrifuged at 10,000 rpm for 5 min. The supernatants’ absorbance at 540 nm (Shimadzu UV-160A, Shimadzu, Duisburg, Germany) was compared with that of the positive (erythrocytes hemolyzed with distilled water) and negative (erythrocyte suspension in PBS at pH 7.4.) controls.
(§7) The degree of hemolysis was determined using the following equation:Hemolysis (%) = 100 × (Abs − Abs0)/(Abs100 − Abs0) where Abs, Abs0 and Abs100 are the absorbance of the test samples, of the suspension treated with isotonic phosphate–buffered saline (PBS) and of the suspension of complete hemolysis treated with distilled water, respectively.

Series [4] has as its system human erythrocytes. Kind of series: Hemolysis assay with human erythrocyte suspension. To be noted: 80 µg/mL, PBS pH 7.4. The protocol:
as §5, §6, §7

Series [5] relates to murine Swiss albino fibroblasts (3T3). The experiment in a line: Cell viability assay, NRU endpoint, 3T3. The conditions noted are these: Mus musculus, Fibroblast, 3T3, 24 h incubation, 10–250 µg/mL. The protocol:
as §1, §2
(§8) The neutral red uptake (NRU) assay is based on the accumulation of dye in the lysosomes of viable cells. After the cells were incubated for 24 h with the corresponding systems, the medium was removed, and the solutions were incubated with the NR dye (Sigma-Aldrich, St. Louis, MO, USA) solution (50 µg/mL) dissolved in the medium, without FBS and without phenol red (Lonza, Verviers, Belgium), for 3 h. Cells were then washed with sterile PBS, followed by the addition of 100 µL of a solution containing 50% absolute ethanol and 1% acetic acid in distilled water to extract the dye. To promote the total dissolution of the dye, plates were placed in a microtiter-plate shaker for 5 min at room temperature. The absorbance of the resulting solutions was measured at 550 nm (Bio-Rad 550 microplate reader, Bio-Rad California, Hercules, CA, USA). Finally, the effect of each treatment was calculated as the percentage of dye uptake by viable cells relative to the control cells (cells without any treatment).
as §4

Series [6] concerns human epithelial carcinoma (HeLa) cell line. Kind of series: Cell viability assay, NRU endpoint, HeLa. The conditions noted are these: 24 h incubation, 10–250 µg/mL. Here is the method: as §1, §2, §8, §4
For series [7], the system named is murine Swiss albino fibroblasts (3T3). The experiment in a line: Cell viability assay, MTT endpoint, 3T3. The conditions noted are these: Mus musculus, Fibroblast, 3T3, 24 h incubation, 10–250 µg/mL. The protocol: as §1, §2, §3, §4
The subject of series [8] is squamous cell carcinoma (A431) cell line. The experiment in a line: Cell viability assay, NRU endpoint, A431. To be noted: for IC50: Homo sapiens, A-431, 24 h, A431, 24 h incubation, 10–250 µg/mL; for SI250 (selective toxicity at 250 µg/mL): A431 compared to 3T3, 250 µg/mL, 24 h. Here is the method: as §1, §2, §8, §4
Series [9] relates to human breast adenocarcinoma (MCF-7) cell line. Kind of series: Cell viability assay, NRU endpoint, MCF-7. The conditions noted are these: for IC50: Homo sapiens, MCF7, 24 h incubation, 10–250 µg/mL; for SI250 (selective toxicity at 250 µg/mL): MCF-7 compared to 3T3, 250 µg/mL, 24 h. The protocol: as §1, §2, §8, §4
Series [10] is described as follows: Cell viability assay, NRU endpoint, cell line not specified. To be noted: up to 250 µg/mL, read-out: minimum cell viability values. The protocol:
as §1, §2, §8

The test system of series [11] is human breast adenocarcinoma (MCF-7) cell line. The experiment in a line: Cell viability assay, MTT endpoint, MCF-7. To be noted: for IC50: Homo sapiens, MCF7, 24 h incubation, 10–250 µg/mL. The protocol: as §1, §2, §3, §4
Series [12] relates to human epithelial carcinoma (HeLa) cell line. Kind of series: Cell viability assay, MTT endpoint, HeLa. To be noted: HeLa; for IC50: Homo sapiens, 24 h, 24 h incubation, 10–250 µg/mL. Here is the method:
as §1, §2, §3, §4

A short description of series [13]: Cell viability assay, MTT endpoint, A431. The conditions noted are these: human, A431 squamous cell carcinoma cells, A431, highest assayed concentration 250 µg/mL, 24 h. The protocol: as §1, §2, §3, §4

What is called viability is a per cent measure of how many cells are alive, often set against a control. In general, IC50 refers to the concentration needed to halve the response being measured. Read a low IC50 as inhibition by little substance.

As to `O=C1NCC(CCl)C1(Cl)Cl` (stereo not drawn) [2b, 3,3-Dichloro-4-(chloromethyl)pyrrolidin-2-one], the viability at 24 h in series [1] was in the range of 60 to 70%; in series [10] it was 80 to 85%. Also, the “SI250 (selective toxicity at 250 µg/mL)” value in [2] is 1.1. In addition, the concentration for half-maximal inhibition (IC50) in series [2], in series [5], in series [6], in series [7], in series [8] and in series [9] was greater than 250 µg/mL in each case. The IC50 in series [11] (MTT) and in series [12] was greater than 250 µg/mL throughout. The hemolysis at 10 µg/mL in series [3] came out at 0.02%. Further, in [4], the degree of hemolysis result was “remained stable”.

The compound `O=C1N(c2ccccc2)CC(CCl)C1(Cl)Cl` (stereo not drawn) [2d, 3,3-Dichloro-4-(chloromethyl)-1-phenylpyrrolidin-2-one] returned a viability at 24 h, 250 µg/mL in [13] of 50%. Besides, the “SI250 (selective toxicity at 250 µg/mL)” value in [2] was 1.4; in [9], “one”. The hemolysis at 10 µg/mL in series [3] was 0.005%. For the same compound, the hemolysis at 80 µg/mL in [3] worked out at 0.1%. In addition, the 50% inhibitory concentration (IC50) in series [5], in [6], in series [7], in series [8], in [9] and in series [11] (MTT) was greater than 250 µg/mL throughout. This compound also gave an IC50 in series [12] greater than 250 µg/mL. In addition, the viability at 24 h in [10] lay within 80 to 85%.

As for `CC(C)(C)N1CCC(CCl)C(Cl)(Cl)C1=O` (stereo not drawn) [2i, 1-(tert-Butyl)-3,3-dichloro-4-(chloromethyl)piperidin-2-one], the “SI250 (selective toxicity at 250 µg/mL)” value in series [2] is recorded as 1.1; in [8] it was 1.1; in [9], “one”; in series [11] (MTT, MCF-7 compared to 3T3, 250 µg/mL, 24 h), “one”. Moreover, the half-maximal inhibitory concentration (IC50) in series [2], in series [5], in [6], in [7], in [8] and in [9] was greater than 250 µg/mL in each case. Further, the concentration for half-maximal inhibition (IC50) in [11] (MTT) and in series [12] was greater than 250 µg/mL in each case. Also, the hemolysis at 10 µg/mL in series [3] came out at 0.003%. In series [3], the hemolysis at 80 µg/mL was roughly 0.07%. Besides, the viability at 24 h in series [10] amounted to 70%.

As for `O=C1CCC(N2CC(CCl)C(Cl)(Cl)C2=O)CC1` (stereo not drawn) [2p], the viability at 24 h in series [1] was 60 to 70%; in [10], 100%. The IC50 in [2], in series [5], in series [6], in series [7], in [8] and in series [9] was greater than 250 µg/mL throughout. For the same compound, the concentration for half-maximal inhibition (IC50) in series [11] (MTT) and in series [12] was greater than 250 µg/mL throughout. The hemolysis at 10 µg/mL in [3] amounted to 0.005%. Also, in series [3], the hemolysis at 80 µg/mL is roughly 0.07%. The entries for the “SI250 (selective toxicity at 250 µg/mL)” value in series [8] and in series [9] were 1.1 and “one”, respectively. The “effect on proliferation of tumor cells” value is recorded as “could promote the proliferation” in [11] (MCF-7, MTT, under the assayed conditions) and “could promote the proliferation” in series [12] (under the assayed conditions).
